Results taken from ChEMBL document CHEMBL4130418, “From dual binding site acetylcholinesterase inhibitors to allosteric modulators: A new avenue for disease-modifying drugs in Alzheimer's disease” (Eur J Med Chem, 2017).
Calls of active or inactive are those of the source. The rule behind the calls is not given here.

Legend:
[1] = molecular target: T1, Acetylcholinesterase (Homo sapiens, UniProt P22303); assay: Inhibition of human AChE using acetylthiocholine iodide as substrate preincubated for 5 mins followed by substrate addition measured over 5 mins by UV-Vis spectrophotometric analysis
[2] = molecular target: Cholinesterase (Homo sapiens, UniProt P06276); assay: Inhibition of human serum BuChE using butyrylthiocholine iodide as substrate preincubated for 5 mins followed by substrate addition measured over 5 mins by UV-Vis spectrophotometric analysis
[3] = tested on: SH-SY5Y; assay: Cytotoxicity against human SH-SY5Y cells assessed as reduction in cell viability at 2.84 uM after 24 hrs by XTT assay; format: cell-based
[4] = tested on: HepG2; assay: Cytotoxicity against human HepG2 cells assessed as reduction in cell viability at 2.84 to 5.68 uM after 24 hrs by XTT assay; format: cell-based; details: hepg2, 24 h
[5] = tested on: SH-SY5Y; assay: Cytoprotection against amyloid beta (1 to 42) peptide induced cell death in human SH-SY5Y cells assessed as increase in clonogenic survival after 24 hrs by Giemsa staining-based inverted microscopic analysis; format: functional; details: read-out: MEC
[6] = tested on: SH-SY5Y; assay: Induction of neuronal differentiation in human SH-SY5Y cells assessed as extensive neurites formation at 0.13 uM followed by culture medium replacement for every three days for 10 days by inverted-phase microscopic analysis; format: functional, cell-based
[7] = tested on: SH-SY5Y; assay: Induction of neuronal differentiation in human SH-SY5Y cells assessed as decrease in cell proliferation at 0.13 uM followed by culture medium replacement for every three days for 10 days by inverted-phase microscopic analysis; format: functional, cell-based
[8] = tested on: SH-SY5Y; assay: Induction of neuronal differentiation in human SH-SY5Y cells assessed as neurite bearing cells at 0.13 uM followed by culture medium replacement for every three days for 10 days by inverted-phase microscopic analysis relative to control; format: functional
[9] = molecular target: T1, Acetylcholinesterase; assay: Mixed-type inhibition of human AChE using acetylthiocholine iodide as substrate preincubated for 5 mins followed by substrate addition measured over 5 mins by Lineweaver-Burk plot analysis
[10] = molecular target: Acetylcholinesterase (Electrophorus electricus) (UniProt O42275); assay: Binding affinity to electric eel AChE in presence of 80 to 1216 uM donepezil by STD NMR spectroscopy method
[11] = molecular target: T1, Acetylcholinesterase; assay: Noncompetitive inhibition of human AChE using acetylthiocholine iodide as substrate preincubated for 5 mins followed by substrate addition measured over 5 mins by Lineweaver-Burk plot analysis
[12] = tested on: SH-SY5Y; assay: Cytotoxicity against human SH-SY5Y cells assessed as reduction in cell viability at 0.056 uM after 24 hrs by XTT assay; format: cell-based
[13] = tested on: HepG2; assay: Cytotoxicity against human HepG2 cells assessed as reduction in cell viability at 0.0035 to 0.224 uM after 24 hrs by XTT assay; format: cell-based; details: hepg2, 24 h
[14] = tested on: SH-SY5Y; assay: Induction of neuronal differentiation in human SH-SY5Y cells assessed as extensive neurites formation at 0.014 uM followed by culture medium replacement for every three days for 10 days by inverted-phase microscopic analysis; format: functional, cell-based
[15] = tested on: SH-SY5Y; assay: Induction of neuronal differentiation in human SH-SY5Y cells assessed as decrease in cell proliferation at 0.014 uM followed by culture medium replacement for every three days for 10 days by inverted-phase microscopic analysis; format: functional, cell-based
[16] = tested on: SH-SY5Y; assay: Induction of neuronal differentiation in human SH-SY5Y cells assessed as neurite bearing cells at 0.014 uM followed by culture medium replacement for every three days for 10 days by inverted-phase microscopic analysis relative to control; format: functional
[17] = molecular target: Acetylcholinesterase (Electrophorus electricus) (UniProt O42275); assay: Binding affinity to electric eel AChE in presence fixed dose of donepezil by STD NMR spectroscopy method

T1 sequence (P22303 whole entry): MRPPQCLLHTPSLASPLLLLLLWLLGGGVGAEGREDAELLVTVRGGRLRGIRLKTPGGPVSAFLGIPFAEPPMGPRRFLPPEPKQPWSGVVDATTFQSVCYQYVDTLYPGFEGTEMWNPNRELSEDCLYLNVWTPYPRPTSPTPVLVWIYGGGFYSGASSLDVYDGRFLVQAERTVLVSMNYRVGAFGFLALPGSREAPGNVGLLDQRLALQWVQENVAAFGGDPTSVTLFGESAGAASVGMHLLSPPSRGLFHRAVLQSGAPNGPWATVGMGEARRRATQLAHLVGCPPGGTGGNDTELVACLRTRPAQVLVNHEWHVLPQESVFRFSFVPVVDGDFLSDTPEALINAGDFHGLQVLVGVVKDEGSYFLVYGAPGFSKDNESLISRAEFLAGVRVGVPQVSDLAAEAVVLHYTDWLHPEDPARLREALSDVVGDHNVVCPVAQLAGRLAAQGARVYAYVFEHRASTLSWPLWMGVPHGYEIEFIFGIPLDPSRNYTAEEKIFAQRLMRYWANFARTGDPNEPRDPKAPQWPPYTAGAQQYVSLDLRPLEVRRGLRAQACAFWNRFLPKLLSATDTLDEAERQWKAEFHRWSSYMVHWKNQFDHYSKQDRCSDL
Sequence of Cholinesterase (P06276 whole entry): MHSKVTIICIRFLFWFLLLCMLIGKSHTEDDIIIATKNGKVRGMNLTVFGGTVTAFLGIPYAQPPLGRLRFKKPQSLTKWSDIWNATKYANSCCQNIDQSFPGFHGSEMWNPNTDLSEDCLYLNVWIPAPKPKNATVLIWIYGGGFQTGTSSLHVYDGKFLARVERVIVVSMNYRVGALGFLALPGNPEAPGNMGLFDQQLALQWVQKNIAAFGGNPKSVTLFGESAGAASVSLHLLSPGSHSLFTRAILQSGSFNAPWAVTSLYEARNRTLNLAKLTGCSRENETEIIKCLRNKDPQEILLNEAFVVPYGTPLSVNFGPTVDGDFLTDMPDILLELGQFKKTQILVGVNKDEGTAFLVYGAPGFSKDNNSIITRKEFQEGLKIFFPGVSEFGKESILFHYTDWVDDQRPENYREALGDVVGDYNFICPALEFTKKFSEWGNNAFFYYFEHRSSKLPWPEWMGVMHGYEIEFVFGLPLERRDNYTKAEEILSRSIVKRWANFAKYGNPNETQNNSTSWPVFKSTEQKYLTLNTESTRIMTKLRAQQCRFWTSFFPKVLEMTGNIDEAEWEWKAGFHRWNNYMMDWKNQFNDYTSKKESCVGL
Sequence of Acetylcholinesterase (Electrophorus electricus) (O42275 24-633 limits assumed): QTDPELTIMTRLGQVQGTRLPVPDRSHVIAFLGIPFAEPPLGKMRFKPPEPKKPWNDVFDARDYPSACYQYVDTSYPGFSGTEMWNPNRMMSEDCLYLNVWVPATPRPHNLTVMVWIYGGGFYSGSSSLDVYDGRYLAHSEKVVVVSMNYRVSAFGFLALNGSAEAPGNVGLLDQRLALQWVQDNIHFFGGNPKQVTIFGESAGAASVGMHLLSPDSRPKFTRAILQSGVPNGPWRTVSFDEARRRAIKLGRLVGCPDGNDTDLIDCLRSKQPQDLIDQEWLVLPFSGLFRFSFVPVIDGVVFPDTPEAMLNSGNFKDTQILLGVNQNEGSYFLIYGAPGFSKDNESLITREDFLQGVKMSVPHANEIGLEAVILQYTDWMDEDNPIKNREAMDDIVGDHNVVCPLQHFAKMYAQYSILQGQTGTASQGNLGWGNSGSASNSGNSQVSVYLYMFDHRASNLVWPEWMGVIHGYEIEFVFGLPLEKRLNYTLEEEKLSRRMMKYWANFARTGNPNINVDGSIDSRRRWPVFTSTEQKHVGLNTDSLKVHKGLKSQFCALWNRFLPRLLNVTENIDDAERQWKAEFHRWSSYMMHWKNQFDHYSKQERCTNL

Structure (SMILES): COc1cc2c(cc1OC)C(=O)C(CC1CCN(Cc3cc(N)c4ccccc4n3)CC1)C2 (stereo not drawn)
- IC50 [1]: 0.71 µM
- IC50 [2]: 6.54 µM
- Activity [3]: Toxic
- Activity [4]: Non-Toxic
- minimal effective concentration [5]: 0.088 µM
- Activity [6]: Active
- Activity [7]: Active
- Activity [8]: 43%

Structure (SMILES): COc1cc2c(cc1OC)C(=O)/C(=C/C1CCN(Cc3cc(N=[N+]=[N-])c4ccccc4n3)CC1)C2
- IC50 [1]: 4.88 µM
- IC50 [2]: > 10 µM
- inhibition [9]: Active
- Activity [10]: inactive

Structure (SMILES): OCC1CCN(Cc2cc(Cl)c3ccccc3n2)CC1
- IC50 [1]: > 10 µM
- IC50 [2]: > 10 µM

Structure (SMILES): COc1cc2c(cc1OC)C(=O)/C(=C/C1CCN(Cc3cc(N)c4ccccc4n3)CC1)C2
- IC50 [1]: 0.014 µM
- IC50 [2]: 3.69 µM
- inhibition [11]: Active
- Activity [12]: Toxic
- Activity [13]: Non-Toxic
- minimal effective concentration [5]: 0.0035 µM
- Activity [14]: Active
- Activity [15]: Active
- Activity [16]: 55%
- Activity [10]: Active
- Activity [17]: Active

Structure (SMILES): [N-]=[N+]=Nc1cc(CN2CCC(C=O)CC2)nc2ccccc12
- IC50 [1]: > 10 µM
- IC50 [2]: > 10 µM

Structure (SMILES): O=CC1CCN(Cc2cc(Cl)c3ccccc3n2)CC1
- IC50 [1]: > 10 µM
- IC50 [2]: > 10 µM

Structure (SMILES): COc1cc2c(cc1OC)C(=O)C(CC1CCN(Cc3cc(Cl)c4ccccc4n3)CC1)C2 (stereo not drawn)
- IC50 [1]: > 10 µM
- IC50 [2]: 5.99 µM

Structure (SMILES): COc1cc2c(cc1OC)C(=O)/C(=C/C1CCN(Cc3cc(Cl)c4ccccc4n3)CC1)C2
- IC50 [1]: > 10 µM
- IC50 [2]: > 10 µM
